Earlier results, collected in EP0356866A2, “Phosphorus-containing squalene synthetase inhibitors and method” (E.R. SQUIBB & SONS, INC., priority 1988, dated 1990).

Molecular target: T1, avian liver farnesyl diphosphate synthetase (Gallus gallus, UniProt P08836)
T1 construct: host or cells: avian liver
T1 sequence (P08836 1-367): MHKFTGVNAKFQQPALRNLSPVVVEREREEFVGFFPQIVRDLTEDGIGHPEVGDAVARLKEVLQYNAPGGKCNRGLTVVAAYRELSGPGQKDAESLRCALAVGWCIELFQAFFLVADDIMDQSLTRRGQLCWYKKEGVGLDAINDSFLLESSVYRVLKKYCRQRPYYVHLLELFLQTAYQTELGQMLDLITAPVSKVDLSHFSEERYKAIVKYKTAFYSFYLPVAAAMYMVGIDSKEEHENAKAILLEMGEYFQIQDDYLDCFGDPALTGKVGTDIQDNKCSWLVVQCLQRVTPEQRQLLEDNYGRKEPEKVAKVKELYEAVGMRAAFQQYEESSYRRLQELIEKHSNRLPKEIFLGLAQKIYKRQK
Details: competitive inhibitors of the 1′-4-condensation between isopentenyl diphosphate and geranyl diphosphate

| Compound | Ki [µM] |
| --- | --- |
| CC(C)=CCCP(=O)(O)CP(=O)(O)O [H] | 71 |
| C=C(C)CCCP(=O)(O)CP(=O)(O)O [G] | 19 |
